Assay results from US20050003383A1, “Linoleate isomerase” (Arkion Life Sciences LLC d/b/a Bio-Technical Resources …, priority 1999, published 2005).
Like-named read-outs stand apart in the source and are kept apart here.

Columns and labels:
[1] = tested on: linoleate isomerase from Clostridium sporogenes; experiment: C. sporogenes linoleate isomerase kinetic assay, absorbence at 234 nm, partially purified enzyme; type: biochemical; settings: for Activity / Activity (%): cofactor 50 μM, DTT 1 mM; for Activity (%): no cofactor = 100; for effect on isomerase activity: fatty acids and derivatives fixed at 35 μM; for Vmax / Km: compound as substrate; for Km: read-out: Km; for substrate has an inhibitory effect at concentrations above: substrate concentration dependency of isomerization
Procedure: In this experiment, all kinetic experiments were performed in a quartz cuvette (1-cm light-path with a magnetic stirrer) at room temperature using a HP 8452A diode array spectrophotometer. The cuvette was filled with 1 ml of incubation buffer containing 50 μg protein, 0.1 M potassium phosphate, pH7.5, 10 mM NaCl and 10% 1,2-propane diol. The isomerization was initiated by adding a small aliquot (1-2 μl) of freshly diluted substrate-stock (˜[…] linoleic acid) in 1,2-propane diol at 50 seconds. The increase in absorbence at 234 nm was monitored and recorded. […] The amount of product formed was calculated based on a molar extinction coefficient of 24,000.

[2] = target: P. acnes ATCC 6919 linoleate isomerase (Cutibacterium acnes, UniProt Q6A8X5); type: biochemical, Propionibacterium acnes; settings: for inhibition of isomerase activity: EDTA 5 mM, 1,10-phenanthroline 1 mM, p-chloromercuribenzoate 5 μM, N-ethylmaleimide 100 μM
Procedure: Formation of CLA was determined by measuring the absorbence at 234 nm. […] Generally, the isomerase was assayed using an endpoint assay after 30 to 60 minutes incubation at room temperature. FIG. 18 (time course assay at different linoleic acid levels) and FIG. 19 (end point assay at different linoleic acid levels) show the effect of increasing substrate concentration on formation of […].

[3] = isomerization of (cis, cis, cis, cis)-6, 9, 12, 15 octadecatetraenoic acid 20 PPM
[4] = isomerization of linoleic acid 10 PPM
[5] = compound as substrate at 10 PPM, activity with linoleic acid set as 100%
[6] = compound added at 35 μM, substrate LA 35 μM, pH 7.5, LA alone = 100%

Chain of P. acnes ATCC 6919 linoleate isomerase (Q6A8X5 entry or part of it): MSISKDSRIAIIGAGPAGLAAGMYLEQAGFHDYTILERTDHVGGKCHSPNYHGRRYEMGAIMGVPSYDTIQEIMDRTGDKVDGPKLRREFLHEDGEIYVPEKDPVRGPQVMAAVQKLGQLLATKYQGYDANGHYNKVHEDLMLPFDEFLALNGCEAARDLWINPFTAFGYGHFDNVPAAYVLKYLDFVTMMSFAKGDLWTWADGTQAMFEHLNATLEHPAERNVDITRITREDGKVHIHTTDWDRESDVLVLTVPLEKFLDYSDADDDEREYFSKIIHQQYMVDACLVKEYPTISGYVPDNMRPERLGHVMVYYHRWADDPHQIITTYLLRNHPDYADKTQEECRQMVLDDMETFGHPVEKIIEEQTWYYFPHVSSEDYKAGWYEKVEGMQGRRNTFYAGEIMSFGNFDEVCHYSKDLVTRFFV

Structure (SMILES): O[C@H](CS)[C@H](O)CS (racemic) [DTT, dithiothreitol]
- Activity [1, 3]: 5.9 nmol/min
- Activity (%) [1, 3]: 95%
- Activity [1, 4]: 12.8 ± 3.8 nmol/min
- Activity (%) [1, 4]: 121%

Structure (SMILES): CCCCCCCC[C@H]1O[C@H]1CCCCCCCC(=O)O (relative stereo) [epoxystearic acid, (cis)-9:10-epoxyoctadecanoic]
- RELATIVE ACTIVITY % [1, 5]: 0%

Structure (SMILES): CCCCC/C=C\C/C=C\CCCCCCCCCC(=O)OC [(cis, cis)-11, 14 eicosadienoic acid methyl ester]
- RELATIVE ACTIVITY % [1, 5]: 0%

Structure (SMILES): CCCCC/C=C\C/C=C\CCCCCCCCCC(=O)O [(cis, cis)-11, 14 eicosadienoic acid]
- RELATIVE ACTIVITY % [1, 6]: 0%
- RELATIVE ACTIVITY % [1, 5]: 20%

Structure (SMILES): CCCCC/C=C\C/C=C\CCCCCCCCCCCC(=O)O [(cis, cis)-13, 16 docosadienoic acid]
- RELATIVE ACTIVITY % [1, 5]: 0%

Structure (SMILES): CCCCC/C=C\C/C=C\C/C=C\CCCCCCC(=O)O [(cis, cis, cis)-8, 11, 14 eicosatrienoic acid]
- RELATIVE ACTIVITY % [1, 5]: 0%

Structure (SMILES): Nc1ncnc2c1ncn2[C@@H]1O[C@H](COP(=O)(O)OP(=O)(O)O)[C@@H](O)[C@H]1O [ADP]
- Activity [1, 3]: 5.7 nmol/min
- Activity (%) [1, 3]: 92%
- Activity [1, 4]: 11.1 ± 1.7 nmol/min
- Activity (%) [1, 4]: 105%
- effect of possible cofactors on isomerase activity ([2]; 60 minute assays): No significant effect

Structure (SMILES): Nc1ncnc2c1ncn2[C@@H]1O[C@H](COP(=O)(O)OP(=O)(O)OP(=O)(O)O)[C@@H](O)[C@H]1O [ATP]
- Activity [1, 3]: 6.1 nmol/min
- Activity (%) [1, 3]: 98%
- Activity [1, 4]: 11.1 ± 1.4 nmol/min
- Activity (%) [1, 4]: 105%
- effect of possible cofactors on isomerase activity ([2]; 60 minute assays): No significant effect

Structure (SMILES): [Ca] [Calcium]
- effect of possible cofactors on isomerase activity ([2]; 60 minute assays): no effect

Structure (SMILES): CC(C)(COP(=O)(O)OP(=O)(O)OC[C@H]1O[C@@H](n2cnc3c(N)ncnc32)[C@H](O)[C@@H]1OP(=O)(O)O)[C@@H](O)C(=O)NCCC(=O)NCCS [CoA]
- Activity [1, 3]: 6.5 nmol/min
- Activity (%) [1, 3]: 105%

Structure (SMILES): Cc1cc2nc3c(=O)[nH]c(=O)nc-3n(C[C@H](O)[C@H](O)[C@H](O)COP(=O)(O)OP(=O)(O)OC[C@H]3O[C@@H](n4cnc5c(N)ncnc54)[C@H](O)[C@@H]3O)c2cc1C [FAD]
- effect of possible cofactors on isomerase activity ([2]; 60 minute assays): No significant effect

Structure (SMILES): Cc1cc2nc3c(=O)[nH]c(=O)nc-3n(C[C@H](O)[C@H](O)[C@H](O)COP(=O)(O)O)c2cc1C [FMN]
- effect of possible cofactors on isomerase activity ([2]; 60 minute assays): No significant effect

Structure (SMILES): CCN1C(=O)C=CC1=O [N-ethylmaleimide]
- inhibition of isomerase activity [2]: not inhibited

Structure (SMILES): NC(=O)C1=CN([C@@H]2O[C@H](COP(=O)(O)OP(=O)(O)OC[C@H]3O[C@@H](n4cnc5c(N)ncnc54)[C@H](O)[C@@H]3O)[C@@H](O)[C@H]2O)C=CC1 [NADH]
- Activity [1, 3]: 6.4 nmol/min
- Activity (%) [1, 3]: 103%
- Activity (%) [1, 4]: 99%
- effect of possible cofactors on isomerase activity ([2]; 60 minute assays): No significant effect

Structure (SMILES): NC(=O)C1=CN([C@@H]2O[C@H](COP(=O)(O)OP(=O)(O)OC[C@H]3O[C@@H](n4cnc5c(N)ncnc54)[C@H](OP(=O)(O)O)[C@@H]3O)[C@@H](O)[C@H]2O)C=CC1 [NADPH]
- Activity [1, 3]: 6.3 nmol/min
- Activity (%) [1, 3]: 102%
- Activity [1, 4]: 11.1 ± 1.5 nmol/min
- Activity (%) [1, 4]: 105%
- effect of possible cofactors on isomerase activity ([2]; 60 minute assays): No significant effect

Structure (SMILES): NC(=O)c1ccc[n+]([C@@H]2O[C@H](COP(=O)([O-])OP(=O)(O)OC[C@H]3O[C@@H](n4cnc5c(N)ncnc54)[C@H](OP(=O)(O)O)[C@@H]3O)[C@@H](O)[C@H]2O)c1 [NADP]
- effect of possible cofactors on isomerase activity ([2]; 60 minute assays): No significant effect

Structure (SMILES): NC(=O)c1ccc[n+]([C@@H]2O[C@H](COP(=O)([O-])OP(=O)(O)OC[C@H]3O[C@@H](n4cnc5c(N)ncnc54)[C@H](O)[C@@H]3O)[C@@H](O)[C@H]2O)c1 [NAD]
- Activity [1, 3]: 5.6 nmol/min
- Activity (%) [1, 3]: 90%
- Activity [1, 4]: 10.8 ± 1.3 nmol/min
- Activity (%) [1, 4]: 102%
- effect of possible cofactors on isomerase activity ([2]; 60 minute assays): No significant effect

Structure (SMILES): CCCCCCCC/C=C\CCCCCCCCCCCC(=O)O [erucic acid, (cis)-13-docosaenoic acid]
- RELATIVE ACTIVITY % [1, 5]: 0%

Structure (SMILES): N[C@@H](CCC(=O)N[C@@H](CS)C(=O)NCC(=O)O)C(=O)O [glutathione]
- effect of possible cofactors on isomerase activity [2]: No significant effect

Structure (SMILES): CCCCC/C=C/C/C=C/CCCCCCCC(=O)O [linolelaidic acid, (trans, trans)-9, 12-octadecadienoic acid]
- RELATIVE ACTIVITY % [1, 6]: 19%
- RELATIVE ACTIVITY % [1, 5]: 0%

Structure (SMILES): CCCCC/C=C\C/C=C\CCCCCCCCO [linoleyl alcohol, (cis, cis)-9, 12-octadecadien-1-ol]
- serves as substrate [1]: do not serve as substrates
- RELATIVE ACTIVITY % [1, 6]: 81%
- RELATIVE ACTIVITY % [1, 5]: 0%
- effect on isomerase activity [1]: inhibitors

Structure (SMILES): [Mg] [magnesium]
- effect of possible cofactors on isomerase activity ([2]; 60 minute assays): no effect

Structure (SMILES): CCCCC/C=C\C/C=C\CCCCCCCC(=O)OC [methyl linoleate, (cis, cis)-linoleic acid methyl ester]
- serves as substrate [1]: do not serve as substrates
- RELATIVE ACTIVITY % [1, 6]: 69%
- RELATIVE ACTIVITY % [1, 5]: 0%
- effect on isomerase activity [1]: inhibitors

Structure (SMILES): O=C(O)c1cc[c]([Hg][Cl])cc1 [p-chloromercuribenzoate]
- inhibition of isomerase activity [2]: not inhibited

Structure (SMILES): CCCCCCCCCCCCCCCC(=O)O [palmitic acid, hexadecanoic acid]
- RELATIVE ACTIVITY % [1, 6]: 93%

Structure (SMILES): CCCCCC/C=C\CCCCCCCC(=O)O [palmitoleic acid, (cis)-9 hexadecenoic acid]
- RELATIVE ACTIVITY % [1, 6]: 27%
- RELATIVE ACTIVITY % [1, 5]: 0%
- Ki ([1]; inhibition of linoleic acid isomerization, calculated from secondary plots, read-out: inhibition constants (Ki)): 33.1 µM

Structure (SMILES): CCCCCCCCCCCCCCCCCC(=O)O [stearic acid, octadecanoic acid]
- RELATIVE ACTIVITY % [1, 6]: 107%

Structure (SMILES): CC/C=C\C/C=C\C/C=C\C/C=C\CCCCC(=O)O [stearidonic acid, (cis, cis, cis, cis)-6, 9, 12, 15 octadecatetraenoic acid]
- Vmax [1]: 204 nmole/min/mg protein
- RELATIVE ACTIVITY % [1, 5]: 60%
- Km [1]: 18.9 µM
- substrate has an inhibitory effect at concentrations above [1]: > 120 µM

Structure (SMILES): CCCCC/C=C\C/C=C\C/C=C\CCCCC(=O)O [γ-linolenic acid, (cis, cis, cis)-6,9, 12-octadecatrienoic acid]
- Vmax [1]: 236 nmole/min/mg protein
- RELATIVE ACTIVITY % [1, 5]: 77%
- Km [1]: 23.8 µM
- substrate has an inhibitory effect at concentrations above [1]: > 15 µM
